{"source": "patent US4837304A", "about": "“Inhibitor of ribonucleotide reductase” (Merck & Co., Inc., priority 1987, dated 1989)", "key": {"[1]": {"biological_target": "T1, Herpes Simplex Virus Ribonucleotide Reductase (HSV RR) (Human herpesvirus 2, UniProt P89462)", "T1 construct": "HSV RR was purified by Baby Hamster Kidney cells that were cultured with HSV2 Strain 186; made in house; host or cells: Baby Hamster Kidney cells infected with HSV2 Strain 186; crude enzyme per Huszar et al., then hydroxyapatite chromatography", "T1 sequence (P89462 whole entry)": "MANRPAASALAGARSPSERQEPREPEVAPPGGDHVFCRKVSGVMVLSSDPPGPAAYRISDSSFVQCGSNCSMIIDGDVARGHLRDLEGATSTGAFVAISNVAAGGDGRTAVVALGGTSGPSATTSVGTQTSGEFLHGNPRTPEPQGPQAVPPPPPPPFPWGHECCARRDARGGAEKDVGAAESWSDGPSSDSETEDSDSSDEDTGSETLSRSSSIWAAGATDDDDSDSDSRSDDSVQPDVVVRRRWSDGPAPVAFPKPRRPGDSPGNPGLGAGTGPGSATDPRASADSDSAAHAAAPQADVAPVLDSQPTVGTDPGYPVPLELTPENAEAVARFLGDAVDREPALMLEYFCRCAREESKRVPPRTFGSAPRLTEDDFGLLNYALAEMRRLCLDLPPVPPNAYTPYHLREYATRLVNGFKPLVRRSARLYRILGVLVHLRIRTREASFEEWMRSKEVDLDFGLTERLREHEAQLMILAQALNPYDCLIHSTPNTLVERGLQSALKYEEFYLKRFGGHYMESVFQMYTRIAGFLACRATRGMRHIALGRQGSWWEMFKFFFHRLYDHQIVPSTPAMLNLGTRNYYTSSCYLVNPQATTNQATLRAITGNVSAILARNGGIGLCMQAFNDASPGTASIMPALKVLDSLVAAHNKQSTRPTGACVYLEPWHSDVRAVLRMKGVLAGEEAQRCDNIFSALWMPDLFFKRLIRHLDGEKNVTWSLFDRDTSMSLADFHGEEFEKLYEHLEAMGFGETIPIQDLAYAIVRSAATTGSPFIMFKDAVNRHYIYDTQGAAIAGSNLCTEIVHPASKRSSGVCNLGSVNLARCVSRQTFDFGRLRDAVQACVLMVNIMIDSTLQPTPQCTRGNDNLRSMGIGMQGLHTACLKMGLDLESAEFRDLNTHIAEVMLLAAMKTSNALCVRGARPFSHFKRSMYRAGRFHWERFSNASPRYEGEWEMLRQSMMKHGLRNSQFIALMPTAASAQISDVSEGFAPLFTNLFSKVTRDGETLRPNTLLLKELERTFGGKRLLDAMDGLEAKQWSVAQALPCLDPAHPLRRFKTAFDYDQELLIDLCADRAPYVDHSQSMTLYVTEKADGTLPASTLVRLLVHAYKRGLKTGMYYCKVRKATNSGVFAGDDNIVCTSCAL", "assay": "Assay of inhibition of HSV RR (reduction of tritiated cytidine-diphosphate to deoxyribo-cytidinediphosphate)", "assay_type": "biochemical, HSV2 Strain 186", "experimental": "After infection, cells were harvested and lysed.\nHSV RR activity was determined as the ability of the enzyme to catalyze the reduction of tritiated cytidine-diphosphate to deoxyribo-cytidinediphosphate in 30 minutes at 37° C. in the presence of dithiothreitol and MgCl2. Activity of oligopeptide inhibitors was determined by adding them to the reaction mix at the beginning of the incubation. Enzyme was not preincubated with inhibitor.\nThese were analyzed for amino acid composition and in some cases sequenced. Dry peptides were resuspended in 100 mM HEPES (pH 8.0) at about 2mM, relyophilized, and stored in aliquots at -80° C. Immediately prior to use they were rehydrated with distilled H2 O and centrifuged to remove any undissolved peptide."}, "[2]": {"biological_target": "ribonucleotide reductase enzyme of herpes simplex virus (Human herpesvirus 1, UniProt P08543)", "conditions": "Nature 321:439-441 and 441-443 (1986); cited from earlier work"}, "[3]": {"biological_target": "T2, ribonucleotide reductase enzyme of herpes simplex virus (Human herpesvirus 1, UniProt P08543)", "T2 sequence (P08543 whole entry, looked up)": "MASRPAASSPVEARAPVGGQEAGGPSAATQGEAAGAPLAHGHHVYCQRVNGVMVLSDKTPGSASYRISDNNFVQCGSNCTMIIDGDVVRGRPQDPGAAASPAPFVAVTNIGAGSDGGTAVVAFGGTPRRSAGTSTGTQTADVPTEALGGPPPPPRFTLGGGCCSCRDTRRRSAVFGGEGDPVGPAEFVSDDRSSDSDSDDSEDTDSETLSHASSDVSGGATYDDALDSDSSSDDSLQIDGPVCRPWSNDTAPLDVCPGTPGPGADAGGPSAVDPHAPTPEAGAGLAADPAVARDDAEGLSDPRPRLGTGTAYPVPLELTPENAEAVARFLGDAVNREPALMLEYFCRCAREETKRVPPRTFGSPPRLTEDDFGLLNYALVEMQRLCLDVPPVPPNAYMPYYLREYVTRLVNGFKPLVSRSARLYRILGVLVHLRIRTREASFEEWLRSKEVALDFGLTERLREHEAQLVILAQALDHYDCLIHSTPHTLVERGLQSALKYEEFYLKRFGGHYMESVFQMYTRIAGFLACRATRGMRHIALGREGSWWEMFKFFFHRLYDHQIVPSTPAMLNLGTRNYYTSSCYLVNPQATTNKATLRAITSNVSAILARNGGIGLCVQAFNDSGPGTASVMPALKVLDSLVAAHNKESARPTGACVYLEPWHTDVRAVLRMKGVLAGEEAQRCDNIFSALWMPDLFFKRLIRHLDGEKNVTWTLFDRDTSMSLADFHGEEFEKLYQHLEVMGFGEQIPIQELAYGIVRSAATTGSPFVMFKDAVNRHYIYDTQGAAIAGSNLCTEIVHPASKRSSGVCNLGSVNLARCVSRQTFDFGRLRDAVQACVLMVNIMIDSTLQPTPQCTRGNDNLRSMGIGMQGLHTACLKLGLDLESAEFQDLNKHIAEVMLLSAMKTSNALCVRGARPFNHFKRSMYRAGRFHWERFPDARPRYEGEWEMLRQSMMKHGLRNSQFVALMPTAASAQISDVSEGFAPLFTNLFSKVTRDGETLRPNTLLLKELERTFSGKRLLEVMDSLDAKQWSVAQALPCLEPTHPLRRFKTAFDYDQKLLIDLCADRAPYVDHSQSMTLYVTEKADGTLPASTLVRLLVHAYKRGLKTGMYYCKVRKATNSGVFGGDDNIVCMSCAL", "conditions": "Nature 321:439-441 and 441-443 (1986); cited from earlier work", "remark": "listed apart in the source"}, "[4]": {"conditions": "30 minutes at 37° C., dithiothreitol and MgCl2, enzyme not preincubated with inhibitor, read-out: IC50 (μM concentration of peptide producing 50% inhibition of enzyme activity)"}}, "note": "Where two headings read alike, the source gives them in different places. Non-standard residues stand in square brackets, D forms with d. Residues, ends and D or L forms follow the SMILES beside them. No end group written: not given here.", "data": [{"compound": "CC(C)C[C@H](NC(=O)[C@@H](CC(=O)O)NC(=O)[C@H](CC(N)=O)NC(=O)[C@@H](NC(=O)[C@@H](NC(=O)[C@H](C)N)C(C)C)C(C)C)C(=O)O", "note": "[A V V N dD L] (H-AVVN[dD]L-OH)", "values": [{"measurement": "IC50", "setting": "[1]; [4]", "result": 520, "unit": "µM"}]}, {"compound": "CC(C)C[C@H](NC(=O)[C@H](CC(=O)O)NC(=O)[C@@H](CC(N)=O)NC(=O)[C@@H](NC(=O)[C@@H](NC(=O)[C@H](C)N)C(C)C)C(C)C)C(=O)O", "note": "[A V V dN D L] (H-AVV[dN]DL-OH)", "values": [{"measurement": "IC50", "setting": "[1]; [4]", "result": 460, "unit": "µM"}]}, {"compound": "CC(C)C[C@H](NC(=O)[C@H](CC(=O)O)NC(=O)[C@H](CC(N)=O)NC(=O)[C@H](NC(=O)[C@@H](NC(=O)[C@H](C)N)C(C)C)C(C)C)C(=O)O", "note": "[A V dV N D L] (H-AV[dV]NDL-OH)", "values": [{"measurement": "IC50", "setting": "[1]; [4]", "result": 600, "unit": "µM"}]}, {"compound": "CC(C)C[C@H](NC(=O)[C@H](CC(=O)O)NC(=O)[C@@H](CC(N)=O)NC(=O)[C@@H](NC(=O)[C@@H](NC(=O)[C@H](C)NC(=O)CNC(=O)[C@H](C)NC(=O)[C@@H](N)Cc1ccc(O)cc1)C(C)C)C(C)C)C(=O)O", "note": "[Y A G A V V dN D L]", "values": [{"measurement": "IC50", "setting": "[1]; [4]", "result": "> 620", "unit": "µM"}]}, {"compound": "CC(C)C[C@H](NC(=O)[C@H](CC(=O)O)NC(=O)[C@H](CC(N)=O)NC(=O)[C@@H](NC(=O)[C@@H](NC(=O)[C@@H](C)NC(=O)CNC(=O)[C@H](C)NC(=O)[C@@H](N)Cc1ccc(O)cc1)C(C)C)C(C)C)C(=O)O", "note": "[Y A G dA V V N D L]", "values": [{"measurement": "IC50", "setting": "[1]; [4]", "result": 72, "unit": "µM"}]}, {"compound": "CC(C)C[C@H](NC(=O)[C@H](CC(=O)O)NC(=O)[C@H](CC(N)=O)NC(=O)[C@@H](NC(=O)[C@@H](NC(=O)[C@H](C)NC(=O)[C@@H](C)NC(=O)[C@H](C)NC(=O)[C@@H](N)Cc1ccc(O)cc1)C(C)C)C(C)C)C(=O)O", "note": "[Y A dA A V V N D L] (H-YA[dA]AVVNDL-OH)", "values": [{"measurement": "IC50", "setting": "[1]; [4]", "result": 88, "unit": "µM"}]}, {"compound": "CC(C)C[C@H](NC(=O)[C@H](CC(=O)O)NC(=O)[C@H](CC(N)=O)NC(=O)[C@@H](NC(=O)[C@@H](NC(=O)[C@H](C)NC(=O)CNC(=O)[C@@H](C)NC(=O)[C@@H](N)Cc1ccc(O)cc1)C(C)C)C(C)C)C(=O)O", "note": "[Y dA G A V V N D L]", "values": [{"measurement": "IC50", "setting": "[1]", "result": 210, "unit": "µM"}]}, {"compound": "CC(C)C[C@H](NC(=O)[C@H](CC(=O)O)NC(=O)[C@H](CC(N)=O)NC(=O)[C@@H](NC(=O)[C@@H](NC(=O)[C@@H](C)N)C(C)C)C(C)C)C(=O)O", "note": "[dA V V N D L] (H-[dA]VVNDL-OH)", "values": [{"measurement": "IC50", "setting": "[1]; [4]", "result": 90, "unit": "µM"}]}, {"compound": "CC(C)C[C@H](NC(=O)[C@H](CC(=O)O)NC(=O)[C@H](CC(N)=O)NC(=O)[C@@H](NC(=O)[C@@H](NC(=O)[C@H](C)NC(=O)CNC(=O)[C@H](C)NC(=O)[C@H](N)Cc1ccc(O)cc1)C(C)C)C(C)C)C(=O)O", "note": "[dY A G A V V N D L]", "values": [{"measurement": "IC50", "setting": "[1]; [4]", "result": 40, "unit": "µM"}]}, {"compound": "CC(C)C[C@H](NC(=O)[C@H](CC(=O)O)NC(=O)[C@H](CC(N)=O)NC(=O)[C@@H](NC(=O)[C@@H](NC(=O)[C@H](N)Cc1ccc(O)cc1)C(C)C)C(C)C)C(=O)O", "note": "[dY V V N D L] (H-[dY]VVNDL-OH)", "values": [{"measurement": "IC50", "setting": "[1]; [4]", "result": 30, "unit": "µM"}]}, {"compound": "Tyr Ala Gly Ala Val Val Asn Asp Leu", "values": [{"measurement": "inhibition in vitro of the activity of the enzyme", "setting": "[2]", "result": "inhibited"}]}, {"compound": "YGAVVNDL [8-desalanine homolog of the nonapeptide, disclosed by Dutia et al]", "values": [{"measurement": "inhibition in vitro of the activity of the enzyme", "setting": "[3]", "result": "inhibited"}]}]}
